# Assay results as given in patent US10766914B2, “DNA alkylating agents” (OBI PHARMA, INC., priority 2015, dated 2020).
# What was measured:
# H460 cells = experiment: Proliferation assay in H460 cells (2 hr exposure, AlamarBlue); type: cell-based, human; conditions: Homo sapiens, NCI-H460, 2 hrs exposure, wash, 70 hrs growth, read-out: IC 50 in proliferation assay in H460 cells
# Summary of the method: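 H460 cells seeded at 4×10^3/well, grown 24 h, then exposed to compound for 2 h at 37 °C. Drug was washed off and cells were regrown 70 h in fresh medium. Viable cells were read by AlamarBlue, and IC50 was taken as the concentration giving 50% growth inhibition.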
# H460 NSCLC xenograft [1] = experiment: Example 4-G antitumor efficacy, ectopic H460 NSCLC xenograft model; type: in vivo, female nude mice (nu/nu); conditions: ip, Q7D × 3
# Description: (§1) Specific pathogen-free homozygous female nude mice (nu/nu, Charles River Laboratories) were used. Mice were given food and water ad libitum and housed in microisolator cages. Four to six week old animals were identified by microchips (Locus Technology, Manchester, Md., USA) at the time of the experiments. All animal studies were approved by the Institutional Animal Care and Use Committee at Threshold Pharmaceuticals, Inc.
# (§2) All cell lines were from the American Type Culture Collection (ATCC, Rockville, Md., USA).
# (§3) Cells were mixed with Matrigel (50% with exception for 30% in the H460) and 0.2 ml per mouse were subcutaneously implanted to the flank area of the animals. When tumor size reached 100-150 250 mm3, mice were randomized into experimental or vehicle groups with 10 mice/group and treatment was started (Day 1). The tested compounds were formulated in 5% DMSO in D5W. The regimens employed in the examples include IP, QD×5/wk (5 days on, 2 days off) as one cycle, for a total of 2 cycles; IP, once; IP, weekly for total 3 weeks; and IV, weekly for 3 weeks. Tumor growth and body weight were measured twice a week. Tumor volume was calculated as (length×width2)/2. Drug efficacy was assessed as Tumor Growth Inhibition (TGI) and Tumor Growth Delay (TGD). TGI was defined as (1−ΔT/ΔC)×100, where ΔT/ΔC presented the ratio of the change in mean (or median, if variation within the group was relatively large) tumor volume of the treated group and of the control group. TGD was calculated as the extra days for the treated tumor to reach 500 mm3 or 1000 mm3 as compared to the control group. Animals were culled when individual tumor size reached over 2000 mm3 or mean tumor volume exceeded 1000 mm3 in the group. Data are expressed as the mean±SEM. One-way analysis of variance with Dunnett post comparison test (GraphPad Prism 4) or two-tailed student's t-test were used for analysis. A P level <0.05 was considered statistically significant.
# (§4) The compounds TH-3040 and TH-3045 were tested in a H460 model. The compounds were dosed as follows. A dose-dependent TH-3040 or TH-3045 was given IP weekly for 3 weeks, from 5 to 45 mg/kg starting at 100 mm^3 tumors on day 1 (10 animals per group average tumor volume). The antitumor effects and the safety of administration are graphically illustrated below.
# [2] = Example 4-G body weight change, H460 xenograft study; type: in vivo, female nude mice (nu/nu); conditions: ip, Q7D × 3
# Procedure: as §3, §4
# H460 NSCLC xenograft [3] = experiment: Example 4-I antitumor efficacy, ectopic H460 NSCLC xenograft model; type: in vivo, female nude mice (nu/nu); conditions: 10 mg/kg, iv, Q7D × 3
# Description: as §1, §2, §3
# (§5) The compound TH-2870 was tested in a H460 model. The compound was dosed follows. 1.5, 5 or 15 mg/kg, IV, weekly for 3 weeks at 250 mm^3 tumors on day 1 (10 animals per group average tumor volume), comparing with docetaxel. The antitumor effects and the safety of administration are graphically illustrated below.
# [4] = Example 4-I body weight change, H460 xenograft study; type: in vivo, female nude mice (nu/nu); conditions: 10 mg/kg, iv, Q7D × 3
# Procedure: as §3, §5
# [5] = system: H460 non-small cell lung cancer xenograft tumor; experiment: Example 4-A antitumor efficacy, ectopic H460 NSCLC xenograft model; type: in vivo, female nude mice (nu/nu); conditions: 60 mg/kg ip Q3D × 5; H460
# Description: as §1, §2, §3
# Compounds provided herein were tested in vivo human tumor xenograft models and compared to standard chemotherapeutic agents such as gemcitabine, nab-paclitaxel. […] The compound was dosed as follows: daily IP dosing: 5 doses then 2 days off then 5 more doses starting at 100 mm^3 tumors on day 1 (10 animals per group median tumor volume). It is contemplated that in some embodiments, the compounds provided herein are activated by human and not by mouse enzymes. The antitumor effects and the safety of administration are graphically illustrated in FIGS. 3-20 below.
# [6] = Example 4-A body weight change, H460 xenograft study; type: in vivo, female nude mice (nu/nu); conditions: 60 mg/kg ip Q3D × 5
# Procedure: as §3, with “A P level <0.05 was considered statistically significant.” left out
structure (smiles),measurement,setting,value
C[C@@H](OP(=O)(N1CC1)N1CC1)c1ccc([N+](=O)[O-])c(Oc2ccc(-c3ccccc3)cc2)c1 [Compound 3045],IC50,H460 cells,4 nM
same,TGD 500,H460 NSCLC xenograft [1]; 5 mpk,48 days
same,TGI,H460 NSCLC xenograft [1]; 5 mpk,104.0%
same,TGD 500,H460 NSCLC xenograft [1]; 15 mpk,70 days
same,TGI,H460 NSCLC xenograft [1]; 15 mpk,104.8%
same,TGD 500,H460 NSCLC xenograft [1]; 45 mpk,86 days
same,TGI,H460 NSCLC xenograft [1]; 45 mpk,106.3%
same,Max BW loss,[2]; 5 mpk,0.0%
same,Max BW loss,[2]; 15 mpk,2.8%
same,Max BW loss,[2]; 45 mpk,2.4%
"CC(=O)O[C@@]12CO[C@@H]1C[C@H](O)[C@@]1(C)C(=O)[C@H](O)C3=C(C)[C@@H](OC(=O)[C@H](O)[C@@H](NC(=O)OC(C)(C)C)c4ccccc4)C[C@@](O)([C@@H](OC(=O)c4ccccc4)[C@H]21)C3(C)C [Doectaxel, docetaxel, reference compound]","TGD500, Days (vs. vehicle)",H460 NSCLC xenograft [3]; H460,6 days
same,"TGD1000, Days (vs. vehicle)",H460 NSCLC xenograft [3]; H460,9 days
same,TGI,"H460 NSCLC xenograft [3]; H460, 250 mm3 tumors on day 1",51.3%
same,Max. BW loss %,[4],12.4%
"Nc1ccn([C@@H]2O[C@H](CO)[C@@H](O)C2(F)F)c(=O)n1 [GEM, gemcitabine, reference compound]",TGD 500,[5],7 days
same,TGD 1000,[5],7 days
same,TGI,[5],42.7%
same,Max. BW loss %,[6],4.9%
